Test results: patent US3951949A, “Sulfates of hydroxyethyl starch” (Ajinomoto Co., Inc., priority 1973, dated 1976)

Legend:
[1] = biological target: bovine serum albumin (Bos taurus, UniProt P02769); test: Inhibition of heat denaturation of serum protein (turbidity); details: 0.5 (W/V) % bovine serum albumin, test substance 3 × 10^-3 M per repeating unit, 1/15M phosphate buffer PH=5.4, 67°C 3 minutes
Experimental: Inhibition of heat denaturation of serum proteins is widely used for screening potential pharmaceutical agents for anti-inflammatory activity. The test is described in "Inhibition of Heat Denaturation of Serum Protein," Y. Mizushima, Arch. Int. Pharmacodyn.
In the test, the sodium salt of hydroxyethyl starch sulfate was dissolved in 1/15M phosphate suffer solution (PH=5.4) and to the solution the same phosphate buffer solution containing 1% bovine serum albumin was added in a 1:1 volume ratio. The solution was stirred at 25°C for 20 minutes and then stirred at 67°C for 3 minutes and cooled. The turbidity of the test solutions thus obtained was compared with that of a solution obtained by adding 1/15M phosphate buffer solution containing 1% bovine serum albumin to 1/15M phosphate buffer solution in a 1:1 volume ratio, and the inhibition degree of heat denaturation were calculated.

[2] = system: pepsin; test: Pepsin inhibition activity; type: biochemical; details: 0.30% aqueous solution (PH=1.8) 1 ml; 20 μg pepsin 1 ml; 1.5% bovine hemoglobin 1 ml; 30°C, 10 min
Experimental: The pepsin inhibition activity of the products of the invention was tested. The anti-ulcer activity of the compounds of the invention is evident.
*0.30% Sulfate of hydroxyethyl starch aqueous solution (PH=1.8) 1 ml; 20
μ g pepsin aqueous solution (PH=1.8) 1 ml; 1.5% Bovine hemoglobin

[3] = system: hyaluronidase; test: Hyaluronidase inhibition activity; type: biochemical; details: 0.16% in phosphate buffer (PH=7.0) 0.25 ml; hyaluronic acid phosphate buffer (PH=5.3) 0.5 ml; bovine serum albumin buffer (PH=3.75) 5.0 ml; 38°C, 45 minutes
Experimental: Hyaluronidase inhibition activities of sulfate of hydroxyethyl starch were tested.
*0.16% Sulfate of hydroxyethyl starch phosphate buffer (PH=7.0) 0.25 ml;
hyaluronic acid phosphate buffer (PH=5.3) 0.5 ml; Bovine serum albumin
phosphate buffer (PH=3.75) 5.0 ml 38°C, 45 minutes.

Sequence of bovine serum albumin (P02769 25-607): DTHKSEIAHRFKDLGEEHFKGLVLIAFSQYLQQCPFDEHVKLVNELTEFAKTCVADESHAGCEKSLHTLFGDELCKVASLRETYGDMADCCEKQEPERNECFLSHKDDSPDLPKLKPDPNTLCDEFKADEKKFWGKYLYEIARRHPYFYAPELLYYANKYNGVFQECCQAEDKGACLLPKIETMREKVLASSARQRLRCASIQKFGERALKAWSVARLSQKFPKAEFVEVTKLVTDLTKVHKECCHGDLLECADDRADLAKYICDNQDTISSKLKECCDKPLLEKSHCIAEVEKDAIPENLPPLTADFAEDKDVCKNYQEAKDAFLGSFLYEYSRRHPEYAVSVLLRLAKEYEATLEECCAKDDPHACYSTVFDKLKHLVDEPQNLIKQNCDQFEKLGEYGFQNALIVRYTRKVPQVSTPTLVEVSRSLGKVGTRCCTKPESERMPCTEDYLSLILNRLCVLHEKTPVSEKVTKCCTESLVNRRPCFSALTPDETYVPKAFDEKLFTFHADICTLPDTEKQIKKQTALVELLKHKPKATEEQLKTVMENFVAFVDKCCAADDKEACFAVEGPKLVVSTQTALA

Row | Substance | Inhibition Ratios of Heat Denaturation of Bovine Serum Albumin ([1]; 3 min, 3000 µM) | Pepsin Inhibition Ratio [2] | Inhibition Ratio (hyaluronidase) [3] | Inhibition Ratios of Heat Denaturation of Bovine Serum Albumin [1]
1 | Sodium Salt of Sulfate of Hydroxyethyl Starch [Example 11.1] | 97.6% | – | – | –
2 | Hydroxyethyl Starch [reference compound] | – | 1% | 10% | –
3 | Sodium Salt of Sulfate of Hydroxyethyl Starch [Example 6.3] | 98.1% | – | – | –
4 | sodium salts of sulfate of hydroxyethyl starch [Ex. 6] | – | 83% | 96% | 93.4%
5 | Sodium Salt of Sulfate of Hydroxyethyl Starch [Example 8.2] | 98.1% | – | – | –
6 | Sodium Salt of Sulfate of Hydroxyethyl Starch [Example 1.6] | 97.9% | – | – | –
7 | Sodium Salt of Sulfate of Hydroxyethyl Starch [Example 14.5] | 98.8% | – | – | –
